# Measurements from US11905274B2, “Receptor inhibitors, pharmaceutical compositions comprising the same and use thereof” (BEIJING TIDE PHARMACEUTICAL CO., LTD., priority 2018, dated 2024).
# Where two headings read alike, the source gives them in different places.
# Columns and labels:
# [1] = biological target: AT2 Receptor (AT2R) (Homo sapiens (Human), UniProt P50052); test: Inhibitory activity on AT2 receptor (Tag-lite HTRF, Tb-labeled AT2R cells, angiotensin receptor red agonist); assay type: binding; conditions: 1 h at room temperature
# [2] = biological target: AT1 Receptor (AT1R) (Homo sapiens (Human), UniProt P30556); test: Inhibitory activity on AT1 receptor (Tag-lite HTRF, Tb-labeled AT1R cells, angiotensin receptor red agonist); assay type: binding; conditions: 1 h at room temperature
# [3] = Pharmacokinetic (PK) test in mice; assay type: in vivo; conditions: male ICR mice, plasma; for AUC(0-inf): read-out: AUCINF_obs; for Cmax: read-out: C0/Cmax
# Description: To male ICR mice, the solution of Compound C2 (1 mg/mL) of the present invention and the solution of control Compound A (1 mg/mL) were administered intravenously (IV) and intragastrically (PO), in both of which the vehicle system is DMSO, solutol and deionized water (1:2:17, v:v:v). For Compound C2 and Compound A, the IV and PO dosages were 3 mg/kg and 20 mg/kg, respectively. For IV administration, blood was collected from the ophthalmic venous plexus of the mice at (0) horn before the administration and at 0.083, 0.25, 0.5, 1, 2, 4, 6, 8, and 24 horns after the administration, while for PO administration, blood was collected from ophthalmic venous plexus of the mice at (0) hour before the administration and at 0.25, 0.5, 1, 2, 4, 6, 8, and 24 horns after the administration. For Compound C2, a 0.05 mL blood sample was taken at each time point, while for Compound A, a 0.03 mL blood sample was taken at each time point. The collected blood sample was placed in a clean sample tube containing EDTA-K2 (4%), and centrifuged at 5000 rpm at 4° C. for 5 minutes. The resulting plasma was transferred to another clean sample tube, and stored at −20° C. LC-MS/MS analysis was performed on the plasma samples. The pharmacokinetic parameters were calculated using WinNonlin 6.3 software.
# AT2 Receptor (AT2R), sequence (P50052 whole entry): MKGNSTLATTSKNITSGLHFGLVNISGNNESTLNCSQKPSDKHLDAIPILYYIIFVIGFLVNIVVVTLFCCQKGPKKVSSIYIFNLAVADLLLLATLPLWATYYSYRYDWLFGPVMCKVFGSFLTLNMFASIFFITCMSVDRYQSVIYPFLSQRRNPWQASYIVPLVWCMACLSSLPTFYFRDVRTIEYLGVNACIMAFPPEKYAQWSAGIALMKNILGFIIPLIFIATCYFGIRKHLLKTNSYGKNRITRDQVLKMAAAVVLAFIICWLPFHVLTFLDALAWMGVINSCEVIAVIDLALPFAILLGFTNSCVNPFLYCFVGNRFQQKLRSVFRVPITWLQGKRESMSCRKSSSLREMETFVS
# AT1 Receptor (AT1R), sequence (P30556 whole entry): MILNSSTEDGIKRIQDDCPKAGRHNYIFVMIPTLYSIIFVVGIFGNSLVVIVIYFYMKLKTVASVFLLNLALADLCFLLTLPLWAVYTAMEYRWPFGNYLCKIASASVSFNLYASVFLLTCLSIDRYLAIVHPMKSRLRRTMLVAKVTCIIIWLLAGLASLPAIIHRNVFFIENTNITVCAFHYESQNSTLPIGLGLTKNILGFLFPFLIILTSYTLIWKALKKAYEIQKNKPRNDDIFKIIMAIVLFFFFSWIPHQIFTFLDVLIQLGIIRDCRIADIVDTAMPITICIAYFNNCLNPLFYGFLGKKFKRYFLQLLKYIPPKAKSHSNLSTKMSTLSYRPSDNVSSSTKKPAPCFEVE
SMILES,IC50 [1],IC50 [2],further results
"O=C(O)[C@@H]1CN(C(=O)N2c3ccccc3Sc3ccccc32)CCN1C(=O)N(c1ccccc1)c1ccccc1 [Compound C44, (S)-1-(diphenylcarbamoyl)-4-(10H-phenothiazine-10-carbonyl)piperazine-2-carboxylic acid]",62.6 nM,> 10000 nM,
"O=C(O)[C@@H]1CN(C(=O)N(c2ccccc2)c2ccccc2)CCN1C(=O)C1(c2ccccc2)CCCCC1 [Compound C80, (S)-4-(diphenylcarbamoyl)-1-(1-phenylcyclohexanecarbonyl) piperazine-2-carboxylic acid]",12.7 nM,> 10000 nM,
"CN(C)S(=O)(=O)NC(=O)[C@@H]1CN(C(=O)N(c2ccccc2)c2ccccc2)CCN1C(=O)N1c2ccccc2C=Cc2ccccc21 [Compound C33, (S)-4-(5H-dibenzo[b,f]azepine-5-carbonyl)-N^3—(N,N-dimethylsulphamoyl)-N^1,N^1-phenylpiperazine-1,3-dicarboxamide]",35.9 nM,> 10000 nM,
"O=C(O)[C@H]1CN(C(=O)N(c2ccccc2)c2ccccc2)CCN1C(=O)N1c2ccccc2C=Cc2ccccc21 [Compound C46, (R)-1-(5H-dibenzo [b,f]azepine-5-carbonyl)-4-(diphenylcarbamoyl) piperazine-2-carboxylic acid]",54.5 nM,> 10000 nM,
"O=C(O)[C@@H]1CN(C(=O)C(c2ccccc2)c2ccccc2)CCN1C(=O)C1(c2ccccc2)CCCCC1 [Compound C81, (S)-4-(2,2-diphenylacetyl)-1-(1-phenylcyclohexanecarbonyl) piperazine-2-carboxylic acid]",,> 10000 nM,
"COc1ccccc1N(C(=O)N1CCN(C(=O)N2c3ccccc3CC(=O)c3ccccc32)[C@H](C(=O)O)C1)c1ccccc1OC [Compound C94, (S)-4-(bis(2-methoxylphenyl)carbamoyl)-1-(10-oxo-10,11-dihydro-5H-dibenzo [b,f]azepine-5-carbonyl)piperazine-2-carboxylic acid]",,> 10000 nM,
"O=C(O)[C@@H]1CN(C(=O)N2c3ccccc3C=Cc3ccccc32)CCN1C(=O)N1c2ccccc2C=Cc2ccccc21 [Compound C3, (S)-1,4-bis(5H-dibenzo[b,f]azepine-5-carbonyl) piperazine-2-carboxylic acid]",32.5 nM,> 10000 nM,
"O=C(O)[C@@H]1CN(C(=O)N2c3ccccc3Sc3ccccc32)CCN1C(=O)C(c1ccccc1)c1ccccc1 [Compound C12, (S)-1-(2,2-diphenylacetyl)-4-(10H-phenothiazine-10-carbonyl) piperazine-2-carboxylic acid]",43.7 nM,> 10000 nM,
"Cc1ccc(CN(C(=O)N2CCN(C(=O)C(c3ccccc3)c3ccccc3)[C@H](C(=O)O)C2)C2CC2)s1 [Compound C153, (S)-4-(cyclopropyl((5-methylthiophen-2-yl)methyl)carbamoyl)-1-(2,2-diphenylacetyl)piperazine-2-carboxylic acid]",5.47 nM,,
"COc1ccccc1N(C(=O)N1CCN(C(=O)N2c3ccccc3C=Cc3ccccc32)[C@H](C(=O)O)C1)c1ccccc1 [Compound C113, (S)-1-(5H-dibenzo[b,f]azepine-5-carbonyl)-4-((2-methoxylphenyl) (phenyl)carbamoyl) piperazine-2-carboxylic acid]",7.37 nM,,
"O=C(O)[C@@H]1CN(C(=O)N(c2ccccc2)c2ccccc2)CCN1C(=O)N(c1ccccc1)c1ccccc1 [A, reference compound]",,,"CL_obs ([3]; IV, 3 mg/kg): 41.8933 mL/min/kg; bioavailability ([3]; mouse, PO 20 mg/kg vs IV 3 mg/kg): 6.26%; AUC(0-t) ([3]; mouse, IV, 3 mg/kg): 1190 ng·h/mL; MRT last ([3]; mouse, IV, 3 mg/kg): 17.4 min; half-life ([3]; mouse, IV, 3 mg/kg): 30 min; AUC(0-inf) ([3]; mouse, IV, 3 mg/kg): 1200 ng·h/mL; Cmax ([3]; mouse, IV, 3 mg/kg): 7170 ng/mL; AUC(0-t) ([3]; mouse, PO, 20 mg/kg): 495 ng·h/mL; MRT last ([3]; mouse, PO, 20 mg/kg): 63.6 min; half-life ([3]; mouse, PO, 20 mg/kg): 52.3 min; AUC(0-inf) ([3]; mouse, PO, 20 mg/kg): 499 ng·h/mL; Cmax ([3]; mouse, PO, 20 mg/kg): 366 ng/mL"
"CC(C(=O)N1CCN(C(=O)N2c3ccccc3CC(=O)c3ccccc32)[C@H](C(=O)O)C1)(c1ccccc1)c1ccccc1 [Compound C106, (S)-4-(2,2-diphenylpropionyl)-1-(10-oxo-10,11-dihydro-5H-dibenzo [b,f]azepine-5-carbonyl) piperazine-2-carboxylic acid]",282 nM,,
"CCN(Cc1csc(C)c1)C(=O)N1CCN(C(=O)N(c2ccccc2)c2ccccc2)[C@H](C(=O)O)C1 [Compound C137, (S)-1-(diphenylcarbamoyl)-4-(ethyl((5-methylthiophen-3-yl)methyl)carbamoyl) piperazine-2-carboxylic acid]",36.5 nM,,
"O=C(O)[C@@H]1CN(C(=O)C(c2ccccc2)c2ccccc2)CCN1C(=O)N1c2ccccc2Sc2ccccc21 [Compound C21, (S)-4-(2,2-diphenylacetyl)-1-(10H-phenothiazine-10-carbonyl)piperazine-2-carboxylic acid]",190 nM,,
CN(C)S(=O)(=O)NC(=O)[C@@H]1CN(C(=O)N(c2ccccc2)c2ccccc2)CCN1C(=O)N1c2ccccc2CC(=O)c2ccccc21 [Compound C103],334 nM,,
"CCN(Cc1csc(Cl)c1)C(=O)N1CCN(C(=O)N(c2ccccc2)c2ccccc2)[C@H](C(=O)O)C1 [Compound C150, (S)-4-(((5-chlorothiophene-3-yl)methyl)(ethyl)carbamoyl)-1-(diphenylcarbamoyl) piperazine-2-carboxylic acid]",26.1 nM,,
"O=C(O)[C@@H]1CN(C(=O)OCc2ccccc2)CCN1C(=O)C1(c2ccccc2)CCCCC1 [Compound C86, (S)-4-((benzyloxy)carbonyl)-1-(1-phenylcyclohexanecarbonyl) piperazine-2-carboxylic acid]",504 nM,,
"COC1=Cc2ccccc2N(C(=O)N2CCN(C(=O)N(c3ccccc3)c3ccccc3)C[C@H]2C(=O)O)c2ccccc21 [Compound C50, (S)-4-(diphenylcarbamoyl)-1-(10-methoxy-5H-dibenzo[b,f]azepine-5-carbonyl) piperazine-2-carboxylic acid]",,> 10000 nM,
"COc1ccccc1N(C(=O)N1CCN(C(=O)N2c3ccccc3C(=O)N(C)c3ccccc32)[C@H](C(=O)O)C1)c1ccccc1OC [Compound C97, (S)-4-(bis(2-methoxyphenyl)carbamoyl)-1-(10-methyl-11-oxo-10,11-dihydro-5H-dibenzo [b,e][1,4]diazepine-5-carbonyl)piperazine-2-carboxylic acid]",138 nM,,
O=C1Cc2ccccc2N(C(=O)N2CCN(C(=O)N(c3ccccc3)c3ccccc3)C[C@H]2C(=O)NO)c2ccccc21 [Compound C123],503 nM,,
"Cc1ccc(CN(C)C(=O)N2CCN(C(=O)N(c3ccccc3)c3ccccc3)[C@H](C(=O)O)C2)s1 [Compound C135, (S)-1-(diphenylcarbamoyl)-4-(methyl((5-methylthiophen-2-yl)methyl)carbamoyl)piperazine-2-carboxylic acid]",28.2 nM,,
"Cc1ccc(CN(C(=O)N2CCN(C(=O)N(c3ccccc3)c3ccccc3)[C@H](C(=O)O)C2)C2CC2)s1 [Compound C145, (S)-4-(cyclopropyl((5-methylthiophen-2-yl)methyl)carbamoyl)-1-(diphenylcarbamoyl) piperazine-2-carboxylic acid]",3.61 nM,,
CS(=O)(=O)NC(=O)[C@@H]1CN(C(=O)N2c3ccccc3CC(=O)c3ccccc32)CCN1C(=O)N(c1ccccc1)c1ccccc1 [Compound C149],290 nM,,
"CN(Cc1ccccc1)C(=O)N1CCN(C(=O)C2(c3ccccc3)CCCCC2)[C@H](C(=O)O)C1 [Compound C87, (S)-4-(benzyl(methyl)carbamoyl)-1-(1-phenylcyclohexanecarbonyl) piperazine-2-carboxylic acid]",389 nM,,
